Results published in paper PMC10945559, “Forgotten Natural Products: Semisynthetic Development of Blasticidin S As an Antibiotic Lead” (ACS Medicinal Chemistry Letters, 2024).
In brackets after ≈: the same amount, converted by molar mass. Like-named read-outs stand apart in the source and are kept apart here. Marks after values point to notes of the source that are not given here.

Key:
in vitro = assay type: cell-based, human; details: human; MRC-5 (lung fibroblast); 24 h; one biological replicate (n = 3); read-out: CC50 for human cells
Procedure: (§1) as a range from biological replicates. Inhibition curves were generated using Prism (GraphPad).
(§2) The IC50 values reported in Table 2 are the average of the two biological replicates ± standard […]
(§3) Cytotoxicity Assay Procedure
(§4) Human lung fibroblast cells, MRC -5 (CCL-171), were cultured at 37℃ with 5% CO2 and were plated at 5000 cells/well in a 96 -well plate. Compounds 1, 2, and 15-22 were initially prepared at concentrations of 5.12 mg/mL in a vehicle of 50% DMSO. Dilutions of the compounds (4 – 512 μg/mL) were then prepared in growth medium containing Dulbecco’s modified Eagle’s medium (DMEM) with high glucose, L -glutamine, and sodium pyruvate supplemented with 10% fetal bovine serum (FBS), 1% non -essential amino acids, and 0.1% gentamicin sulfate, and 25mM HEPES. The vehicle (50% DMSO) was also prepared via the sa me dilution series to serve as a control. Growth media was removed from the cells and replaced with the same volume of each compound dilution. Cells were incubated for 24 h , after which CellTiter 96® AQueous One Solution Reagent was added to each well as recommended by the manufacturer’s protocol (Promega CellTiter 96 AQueous One Solution Cell Proliferation Assay) and further incubated for 4 h. After incubation, absorbance was measured at 490 nm on an Infinite M plex multimode microplate reader with i -control Tecan software. Viability was calculated by subtracting media only absorbance values and normalizing to the vehicle control at each concentration. The presented data is one assay performed in triplicate that is representative of multiple trials. Data for the 256 and 512 μg/mL concentrations were removed from analysis due to vehicle toxicity […]
(§5) CC50 concentrations were determined via the ED50 Plus v1.0 software (https://archive.org/details/ed50v10_zip).
Figure S41. The effect of compounds on cell viability. The lines represent non -linear regression curves, and error bars represent means ± […]
SD (n=3). […]

Pseudomonas aeruginosa = assay: Broth microdilution antibacterial assay; assay type: cell-based; details: for Selectivity index (CC50/IC50): MRC-5 CC50 / P. aeruginosa IC50; for IC50 / MIC: Pseudomonas aeruginosa; for IC50: average of two biological replicates ± S.D., read-out: IC50
Procedure: (§6) Antibacterial Assay Procedure
(§7) Broth Microdilution Assays
(§8) Media and solutions were autoclaved or sterile filtered prior to use and manipulations were carried out in a laminar flow hood. Antibacterial testing was performed in polypropylene 96 -well flat bottom plates. The minimal inhibitory concentration of blasticidin S ( 1) hydrochloride, P10 (2), and derivatives 15–22 were assessed against Staphylococcus aureus ΔNorA, S. aureus 8810, methicillin-resistant S. aureus (MRSA) ATCC 43300, Enterococcus faecalis ATCC 29212, vancomycin-resistant Enterococcus, Klebsiella pneumoniae ATCC 29665, Pseudomonas aeruginosa, and Acinetobacter baumannii ATCC 17978 using serial dilutions. Doxycycline (Gold Bio) as a positive control and the vehicle as a negative control. Stock solutions of each compound were prepared at 5.12 mg/mL in 50% DMSO/water and serially diluted in 50% DMSO/water to create master plates. From the master plates, 10 μL of each dilution was applied to test plates using a Bravo automated liquid transfer system (Agilent). Bacteria previously grown overnight (37 °C, 120 – 200 RPM), in LB broth were diluted to an OD600 of 0.0 5 in cation-adjusted Mueller-Hinton broth, grown to an OD600 of ~0.5, and diluted to an OD600 of 0.004 in cation-adjusted Mueller-Hinton broth. These diluted cultures were applied to the test plates (190 μL per test well) resulting in final concentrations of the test compounds of 256–2 μg/mL. Growth controls (wells with inoculated media but no vehicle or test compounds) were included to assess any potential toxicity from the vehicle. The plates were incubated at 37 °C for 16–18 h, except for VRE and E. faecalis, which were incubated at 37 °C for 24 h. Inhibition was determined by measuring the optical density at 600 nm (OD600) with a Cytation 3 plate reader (BioTek). The optical density measurements were normalized to the positive and negative controls and the vehicle and growth controls were compared and found to be indistinguishable, indicating no toxicity from the vehicle used. The MIC was the lowest concentration that inhibited >90% of growth. Two biological replicates were performed in duplicate. MIC values are reported […]
as §1, §2, §3, §4, §5

[1] = tested on: Klebsiella pneumoniae ATCC 29665; assay: Broth microdilution antibacterial assay; assay type: cell-based; details: for IC50 / MIC: Klebsiella pneumoniae, ATCC29665, K. pneumoniae; for IC50: average of two biological replicates ± S.D., read-out: IC50; for MIC: lowest concentration inhibiting >90% of growth, range from biological replicates, read-out: MIC; for Selectivity index (CC50/IC50): MRC-5 CC50 / K. pneumoniae IC50
Procedure: as §6, §7, §8, §1, §2, §3, §4, §5

[2] = tested on: vancomycin-resistant Enterococcus (VRE); assay: Broth microdilution antibacterial assay; assay type: cell-based; details: for MIC / IC50: Enterococcus, VRE; for IC50: average of two biological replicates ± S.D., read-out: IC50; for Selectivity index (CC50/IC50): MRC-5 CC50 / VRE IC50
Procedure: as §6, §7, §8, §1, §2, §3, §4, §5

[3] = tested on: Enterococcus faecalis ATCC 29212; assay: Broth microdilution antibacterial assay; assay type: cell-based; details: for MIC / IC50: Enterococcus faecalis, ATCC29212; for IC50: average of two biological replicates ± S.D. (18: one biological replicate), read-out: IC50; for Selectivity index (CC50/IC50): MRC-5 CC50 / E. faecalis IC50
Procedure: as §6, §7, §8, §1, §2, §3, §4, §5

[4] = tested on: Staphylococcus aureus ΔNorA; assay: Broth microdilution antibacterial assay; assay type: cell-based; details: for Selectivity index (CC50/IC50): MRC-5 CC50 / S. aureus ΔNorA IC50; for IC50 / MIC: Staphylococcus aureus
Procedure: as §6, §7, §8, §1, §2, §3, §4, §5

[5] = tested on: Acinetobacter baumannii ATCC 17978; assay: Broth microdilution antibacterial assay; assay type: cell-based; details: for IC50 / MIC: Acinetobacter baumannii, ATCC17978, A. baumannii; for IC50: average of two biological replicates ± S.D., read-out: IC50; for MIC: lowest concentration inhibiting >90% of growth, range from biological replicates, read-out: MIC; for Selectivity index (CC50/IC50): MRC-5 CC50 / A. baumannii IC50
Procedure: as §6, §7, §8, §1, §2, §3, §4, §5

[6] = tested on: methicillin-resistant S. aureus (MRSA) ATCC 43300; assay: Broth microdilution antibacterial assay; assay type: cell-based, Staphylococcus aureus; details: for Selectivity index (CC50/IC50): MRC-5 CC50 / MRSA IC50; for IC50 / MIC: Staphylococcus aureus; for IC50: average of two biological replicates ± S.D., read-out: IC50
Procedure: as §6, §7, §8, §1, §2, §3, §4, §5

S. aureus 8810 = assay: Broth microdilution antibacterial assay; assay type: cell-based, Staphylococcus aureus; details: for Selectivity index (CC50/IC50): MRC-5 CC50 / S. aureus IC50; for IC50 / MIC: Staphylococcus aureus, 8810; for IC50: average of two biological replicates ± S.D., read-out: IC50
Procedure: as §6, §7, §8, §1, §2, §3, §4, §5

[7] = average MIC, Table S3, read-out: Average Activity against VRE
[8] = E. faecalis, 24 h, lowest concentration inhibiting >90% of growth, range from biological replicates, read-out: MIC
[9] = average MIC, Table S3, read-out: Average Activity against E. faecalis
[10] = MRSA, lowest concentration inhibiting >90% of growth, range from biological replicates, read-out: MIC
[11] = average MIC, Table S3, read-out: Average Activity against MRSA
[12] = S. aureus, lowest concentration inhibiting >90% of growth, range from biological replicates, read-out: MIC
[13] = average MIC, Table S3, read-out: Average Activity against S. aureus

| Structure (SMILES) | CC50 at 24 h (in vitro) | Selectivity index (CC50/IC50) (Pseudomonas aeruginosa) | IC50 (Pseudomonas aeruginosa; P. aeruginosa) | IC50 [1] | MIC [1] | Selectivity index (CC50/IC50) [1] | MIC [2, 7] | IC50 [2] | Selectivity index (CC50/IC50) [2] | MIC [3, 8] | IC50 ([3]; E. faecalis) | MIC [3, 9] | Selectivity index (CC50/IC50) [3] | Selectivity index (CC50/IC50) [4] | IC50 [4] | MIC [4] | IC50 [5] | MIC [5] | Selectivity index (CC50/IC50) [5] | Selectivity index (CC50/IC50) [6] | also measured |
| --- | --- | --- | --- | --- | --- | --- | --- | --- | --- | --- | --- | --- | --- | --- | --- | --- | --- | --- | --- | --- | --- |
| C#CCCNC(=O)[C@H]1O[C@@H](n2ccc(N)nc2=O)C=C[C@@H]1NC(=O)C[C@@H](N)CCN(C)C(=N)N [Compound 20] | 65.9 µg/mL (≈ 139 µM) | 3.3 | 20.2 ± 1.3 µg/mL (≈ 42.7 µM) | 30.7 ± 5.3 µg/mL (≈ 64.8 µM) | 128 µg/mL (≈ 270 µM) | 2.2 | 64 µg/mL (≈ 135 µM) | 22.1 ± 12 µg/mL (≈ 46.7 µM) | 3.0 | 16 to 32 µg/mL (≈ 33.8 to 67.6 µM) | 11.1 ± 4.1 µg/mL (≈ 23.4 µM) | 16 µg/mL (≈ 33.8 µM) | 5.9 | 4.3 | 15.2 ± 2.1 µg/mL (≈ 32.1 µM) | 64 µg/mL (≈ 135 µM) | 24.3 ± 3.2 µg/mL (≈ 51.3 µM) | 128 µg/mL (≈ 270 µM) | 2.7 | 9.1 | MIC (Pseudomonas aeruginosa; P. aeruginosa, lowest concentration inhibiting >90% of growth, range from biological replicates, read-out: MIC): 64 µg/mL (≈ 135 µM); MIC ([2]; 24 h, lowest concentration inhibiting >90% of growth, range from biological replicates, read-out: MIC): 64 µg/mL (≈ 135 µM); IC50 ([6]; MRSA): 7.2 ± 2.3 µg/mL (≈ 15.2 µM); MIC [6, 10]: 32 µg/mL (≈ 67.6 µM); MIC [6, 11]: 32 µg/mL (≈ 67.6 µM); Selectivity index (CC50/IC50) (S. aureus 8810): 26; IC50 (S. aureus 8810; S. aureus): 2.5 ± 0.2 µg/mL (≈ 5.28 µM); MIC (S. aureus 8810; [12]): 16 µg/mL (≈ 33.8 µM); MIC (S. aureus 8810; [13]): 16 µg/mL (≈ 33.8 µM) |
| CN(C)C(=O)[C@H]1O[C@@H](n2ccc(N)nc2=O)C=C[C@@H]1NC(=O)C[C@@H](N)CCN(C)C(=N)N [Compound 18] | 63.9 µg/mL (≈ 142 µM) | 3.4 | 18.8 ± 2.6 µg/mL (≈ 41.8 µM) | 60.1 ± 4.7 µg/mL (≈ 134 µM) | 256 µg/mL (≈ 570 µM) | 1.1 | 96 µg/mL (≈ 214 µM) | 27.7 ± 11 µg/mL (≈ 61.6 µM) | 2.3 | 16 to 32 µg/mL (≈ 35.6 to 71.2 µM) | 17 µg/mL (≈ 37.8 µM) | 32 µg/mL (≈ 71.2 µM) | 3.7 ^b | 3.5 | 18.3 ± 1.4 µg/mL (≈ 40.7 µM) | 128 µg/mL (≈ 285 µM) | 46.4 ± 7 µg/mL (≈ 103 µM) | 256 µg/mL (≈ 570 µM) | 1.4 | 5.0 | MIC (Pseudomonas aeruginosa): 64 to 128 µg/mL (≈ 142 to 285 µM); MIC ([2]; 24 h): 64 to 128 µg/mL (≈ 142 to 285 µM); IC50 ([6]; MRSA): 12.8 ± 1.9 µg/mL (≈ 28.5 µM); MIC [6, 10]: 32 µg/mL (≈ 71.2 µM); MIC [6, 11]: 32 µg/mL (≈ 71.2 µM); Selectivity index (CC50/IC50) (S. aureus 8810): 9.1; IC50 (S. aureus 8810; S. aureus): 7 ± 1.5 µg/mL (≈ 15.6 µM); MIC (S. aureus 8810; [12]): 64 µg/mL (≈ 142 µM); MIC (S. aureus 8810; [13]): 64 µg/mL (≈ 142 µM) |
